Assay results reported in PMC7069944, “Amino acid levels determine metabolism and CYP450 function of hepatocytes and hepatoma cell lines” (Nature Communications, 2020).
Where “and” joins values, the source holds several entries; their conditions need not be identical. Equal entries are not always repeated.

Key:
HepG2 = assay: Repeated-exposure DILI training compounds, resazurin conversion, HepG2; conditions: for % resazurin conversion: repeat exposure; for resazurin conversion (Supplementary Figure 7D): replicates
Procedure: (§1) To evaluate the ability to predict hepatotoxicity, we adapted the differentiation assays to a 384-well format. […] As a readout, we evaluated cell viability by resazurin conversion and correlated the results to therapeutic doses (Cmax values).
(§2) PSCs were differentiated in a 384-well format. […] As a negative control, 41 wells were left untreated. HepG2 were seeded at 40,000 cells per well. […] Cells were fixed with 4% PFA. […] Drugs were administrated after 8 h of attachment.

HLC = assay: Repeated-exposure DILI training compounds, resazurin conversion, HLC; conditions: repeat exposure
Procedure: as §1, §2

HC6X = assay: Repeated-exposure DILI training compounds, resazurin conversion, HC6X; conditions: for % resazurin conversion: repeat exposure; for resazurin conversion (Supplementary Figure 7D): replicates
Procedure: as §1, §2

HC3X = assay: Repeated-exposure DILI training compounds, resazurin conversion, HC3X; conditions: for IC50/Cmax: human; for resazurin conversion (Supplementary Figure 7D): HC3X AAGLY D40, replicates
Procedure: as §1, §2

[1] = HC6X AAGLY D40 Remove dox, 100 uM

O=C1CC2(CCCC2)CC(=O)N1CCCCN1CCN(c2ncccn2)CC1 [Buspiron]
% resazurin conversion (HepG2; HepG2 AAGLY D30, 3 uM): 82.9% and 82.6% and 85.2% and 70.1% and 73.2% | % resazurin conversion (HepG2; HepG2 AAGLY D30, 5 uM): 75.8% and 88.2% and 72.9% and 66.2% and 79.4% and 72.2% | % resazurin conversion (HepG2; HepG2 AAGLY D30, 10 uM): 70.9% and 76.8% and 83.7% and 64.5% and 73.5% and 76.4% | % resazurin conversion (HepG2; HepG2 AAGLY D30, 30 uM): 83.2% and 92.9% and 78.7% and 72.3% and 78.9% and 76.5% | % resazurin conversion (HepG2; HepG2 AAGLY D30, 50 uM): 80.3% and 98.3% and 89.9% and 83.3% and 93.4% and 81.9% | % resazurin conversion (HepG2; HepG2 AAGLY D30, 100 uM): 88.3% and 87.7% and 85.2% and 77.2% and 94.7% and 81.8% | % resazurin conversion (HepG2; HepG2 AAGLY D30, 300 uM): 47.4% and 86.8% and 88.6% and 79.7% and 88.3% and 80.1% | % resazurin conversion (HepG2; HepG2 AAGLY D30, 600 uM): 76.5% and 91.9% and 75.1% and 71.1% and 78% and 76.7% | % resazurin conversion (HepG2; HepG2 AAGLY D30, 1200 uM): 38% and 34.1% and 34.5% and 34.6% and 35.7% | % resazurin conversion (HepG2; HepG2 CTL D7, 3 uM): 92.8% | % resazurin conversion (HepG2; HepG2 CTL D7, 5 uM): 96.4% and 97.6% and 106.5% and 96.6% and 98% and 90.2% | % resazurin conversion (HepG2; HepG2 CTL D7, 10 uM): 94.3% and 94.1% and 99.5% and 93.5% and 98.4% and 95.6% | % resazurin conversion (HepG2; HepG2 CTL D7, 30 uM): 82.7% and 84.2% and 92.3% and 83% and 85.3% and 78.8% | % resazurin conversion (HepG2; HepG2 CTL D7, 50 uM): 72.7% and 67.2% and 78.7% and 68.5% and 76.7% and 71.9% | % resazurin conversion (HepG2; HepG2 CTL D7, 100 uM): 67.5% and 61.8% and 72.7% and 60.8% and 71.2% and 63.1% | % resazurin conversion (HepG2; HepG2 CTL D7, 300 uM): 61.1% and 51.9% and 57.2% and 57% and 59.1% and 57.6% | % resazurin conversion (HepG2; HepG2 CTL D7, 600 uM): 38.6% and 29% and 35.3% and 36.3% and 35.1% and 38.2% | % resazurin conversion (HepG2; HepG2 CTL D7, 1200 uM): 7% and 6.5% and 7.1% and 6.8% and 6.6% | % resazurin conversion (HLC; HLC AAGLY D40, 5 uM): 67.7% and 92.7% and 64.2% and 84.3% and 47.9% and 66.7% | % resazurin conversion (HLC; HLC AAGLY D40, 10 uM): 85.8% and 64.9% and 92.1% and 82% and 66.1% and 66.8% | % resazurin conversion (HLC; HLC AAGLY D40, 30 uM): 116.3% and 73.9% and 114.6% and 80.9% and 111.6% and 83.2% | % resazurin conversion (HLC; HLC AAGLY D40, 600 uM): 33.4% and 36.6% and 61.5% and 38.3% and 40.4% and 34.1% | % resazurin conversion (HLC; HLC AAGLY D40, 1200 uM): 36.8% and 25.4% and 26.6% and 31.3% and 28.1% and 38% | % resazurin conversion (HLC; HLC LDM D40, 3 uM): 103.9% and 103.1% and 108.1% and 79.4% and 66.2% and 77.5% | % resazurin conversion (HLC; HLC LDM D40, 5 uM): 89.3% and 69.5% and 87.6% and 70.2% and 108.2% | % resazurin conversion (HLC; HLC LDM D40, 10 uM): 86.6% and 87.3% and 101% and 83.8% and 104.7% and 105% | % resazurin conversion (HLC; HLC LDM D40, 30 uM): 71.9% and 90.1% and 102.1% and 75.5% and 80.5% and 81.4% | % resazurin conversion (HLC; HLC LDM D40, 50 uM): 56.1% and 105.8% and 92.3% and 104% and 79.6% | % resazurin conversion (HLC; HLC LDM D40, 100 uM): 84.7% and 120.8% and 121.2% and 77.9% and 92% and 91.2% | % resazurin conversion (HC6X; HC6X AAGLY D40, 3 uM): 109.5% and 96.9% and 120.8% and 98% and 87.5% and 117.9% | % resazurin conversion (HC6X; HC6X AAGLY D40, 5 uM): 83.7% and 97.5% and 104.1% and 109.8% and 83.3% and 99.7% | % resazurin conversion (HC6X; HC6X AAGLY D40, 10 uM): 85.5% and 135.9% and 111.1% and 117.5% and 91.9% and 102.2% | % resazurin conversion (HC6X; HC6X AAGLY D40, 30 uM): 114% and 167.8% and 149.8% and 117.8% and 94% and 164.1% | % resazurin conversion (HC6X; HC6X AAGLY D40, 50 uM): 112.9% and 116.6% and 111.2% and 167.3% and 107.2% and 107.3% | % resazurin conversion (HC6X; HC6X AAGLY D40, 100 uM): 109.2% and 112.4% and 163.5% and 127.2% and 106% and 162.8% | % resazurin conversion (HC6X; HC6X AAGLY D40, 300 uM): 140.3% and 103.5% and 121.9% and 115.9% and 101.2% and 155.2% | % resazurin conversion (HC6X; HC6X AAGLY D40, 600 uM): 143.6% and 91% and 112.3% and 121.3% and 99.3% and 149.8% | % resazurin conversion (HC6X; HC6X AAGLY D40, 1200 uM): 56.9% and 60.8% and 76.3% and 66.9% and 59.2% | % resazurin conversion (HC6X; HC6X AAGLY D40 Remove dox, 3 uM): 93.4% and 152.6% and 130.2% and 156.1% and 101.5% and 127.1% | % resazurin conversion (HC6X; HC6X AAGLY D40 Remove dox, 10 uM): 169.9% and 114.9% and 169.4% and 120.1% and 97.5% and 96% | % resazurin conversion (HC6X; [1]): 158.4% and 106.8% and 179.1% and 111.4% and 123.7% and 132%

O=C1CC2(CCCC2)CC(=O)N1CCCCN1CCN(c2ncccn2)CC1 [Buspirone]
IC50/Cmax (HC3X): 120200

CCc1ccc(CCOc2ccc(CC3SC(=O)NC3=O)cc2)nc1 (stereo not shown) [Proglitazone]
resazurin conversion (Supplementary Figure 7D) (HepG2; HepG2 AAGLY D30, 30 uM): 76.5 (2×) and 98.3 and 82.8 and 103.2 and 80.9 | resazurin conversion (Supplementary Figure 7D) (HepG2; HepG2 AAGLY D30, 50 uM): 86.1 and 109.6 and 86.4 and 100 and 77.1 and 92.9 | resazurin conversion (Supplementary Figure 7D) (HepG2; HepG2 AAGLY D30, 100 uM): 85.4 and 96.2 and 90.6 and 100.7 and 78.9 and 86.6 | resazurin conversion (Supplementary Figure 7D) (HepG2; HepG2 AAGLY D30, 300 uM): 105.7 and 117.9 and 106.2 and 102.2 | resazurin conversion (Supplementary Figure 7D) (HepG2; HepG2 AAGLY D30, 600 uM): 91.8 and 99.3 and 126.4 and 102.6 and 116.8 | resazurin conversion (Supplementary Figure 7D) (HepG2; HepG2 AAGLY D30, 1200 uM): 95.2 and 102.5 and 118.4 and 129.4 and 110.4 and 135.6 | resazurin conversion (Supplementary Figure 7D) (HepG2; HepG2 CTL D7, 30 uM): 120.4 and 118.8 and 101.6 and 104 and 100.1 | resazurin conversion (Supplementary Figure 7D) (HepG2; HepG2 CTL D7, 50 uM): 129.5 and 93.8 and 100.8 and 96.7 and 101.2 and 122.3 | resazurin conversion (Supplementary Figure 7D) (HepG2; HepG2 CTL D7, 100 uM): 125.4 and 88.5 and 98 and 96 (2×) and 110.7 | resazurin conversion (Supplementary Figure 7D) (HepG2; HepG2 CTL D7, 300 uM): 117.2 and 87 and 94.6 (2×) and 95.5 and 111.8 | resazurin conversion (Supplementary Figure 7D) (HepG2; HepG2 CTL D7, 600 uM): 86.3 and 70.3 and 76.6 and 75.3 and 70.1 and 87.4 | resazurin conversion (Supplementary Figure 7D) (HepG2; HepG2 CTL D7, 1200 uM): 57 and 33 and 42.5 and 44.8 and 41.7 and 59 | resazurin conversion (Supplementary Figure 7D) (HC3X; 30 uM): 121 and 98.9 and 91.2 and 87.5 and 101 | resazurin conversion (Supplementary Figure 7D) (HC3X; 50 uM): 105.9 and 84.2 and 118.5 and 71.8 and 81.4 and 110 | resazurin conversion (Supplementary Figure 7D) (HC3X; 100 uM): 120.6 and 83.7 and 95.6 and 119.3 and 129.6 | resazurin conversion (Supplementary Figure 7D) (HC3X; 300 uM): 107.4 and 124.1 and 139.3 and 91.4 and 117.3 and 157.9 | resazurin conversion (Supplementary Figure 7D) (HC3X; 600 uM): 74.1 and 108.7 and 93.3 and 116.1 and 116 and 105.8 | resazurin conversion (Supplementary Figure 7D) (HC3X; 1200 uM): 119 and 156.2 and 148 and 139.2 and 120.5 | resazurin conversion (Supplementary Figure 7D) (HC6X; HC6X AAGLY D40, 30 uM): 134.4 and 112 and 79.3 and 107.2 and 76.2 and 91.4 | resazurin conversion (Supplementary Figure 7D) (HC6X; HC6X AAGLY D40, 50 uM): 137 and 83.7 and 59.1 and 75.7 and 149.3 and 136.5 | resazurin conversion (Supplementary Figure 7D) (HC6X; HC6X AAGLY D40, 100 uM): 100.9 and 141.3 and 83.6 and 90.9 and 69.2 and 155.3 | resazurin conversion (Supplementary Figure 7D) (HC6X; HC6X AAGLY D40, 300 uM): 125.9 and 124.5 and 135.2 and 127.1 and 125.2 and 153.4 | resazurin conversion (Supplementary Figure 7D) (HC6X; HC6X AAGLY D40, 600 uM): 91.5 and 88.8 and 88.2 and 125.7 and 101 and 136.6 | resazurin conversion (Supplementary Figure 7D) (HC6X; HC6X AAGLY D40, 1200 uM): 94.8 and 131 and 95.9 and 103.6 and 97.2 and 136.5 | resazurin conversion (Supplementary Figure 7D) (HC6X; HC6X AAGLY D40 Remove dox, 30 uM): 121 and 98.9 and 91.2 and 87.5 and 101 | resazurin conversion (Supplementary Figure 7D) (HC6X; HC6X AAGLY D40 Remove dox, 50 uM): 105.9 and 84.2 and 118.5 and 71.8 and 81.4 and 110 | resazurin conversion (Supplementary Figure 7D) (HC6X; [1]): 120.6 and 83.7 and 95.6 and 119.3 and 129.6 | resazurin conversion (Supplementary Figure 7D) (HC6X; HC6X AAGLY D40 Remove dox, 300 uM): 107.4 and 124.1 and 139.3 and 91.4 and 117.3 and 157.9 | resazurin conversion (Supplementary Figure 7D) (HC6X; HC6X AAGLY D40 Remove dox, 600 uM): 74.1 and 108.7 and 93.3 and 116.1 and 116 and 105.8 | resazurin conversion (Supplementary Figure 7D) (HC6X; HC6X AAGLY D40 Remove dox, 1200 uM): 119 and 156.2 and 148 and 139.2 and 120.5

C1CCC(C(CC2CCCCN2)C2CCCCC2)CC1 (stereo not shown) [perhexiline]
IC50/Cmax (HC3X): 0.58
